For data set [1] the following is noted: cited from earlier work.
The conditions of data set [2]: cited from earlier work; for terminal half-life: plasma; for peak concentration in plasma: usual clinical doses.
Data set [3] deals with HL-60 cells. As to the kind of experiment: Differentiation by CD11b/CD14 flow cytometry. It is filed as cell-based, human. The procedure: Immunophenotyping. The PE-conjugated anti-CD11b, FITC-conjugated anti-CD14 monoclonal antibody (mAb) (Becton Dickinson) and PE-conjugated anti-CD95 mAb (PharMingen) were used at a 1/10 dilution.
Enhancement in cellular differentiation using combinations of CDDO with ATRA were tested. […] Cell differentiation was analyzed by flow cytometry (CD14/CD11b staining). […] These experiments were repeated. […]
Finally, the inventors examined if CDDO-Me combined with ATRA would enhance differentiation. […] […] Next, combined treatment with CDDO-Me and RXR-specific ligand were tested for potentiation of anti-leukemic effects.
On the technique in general: In flow cytometry, cells or beads pass a laser one at a time.

The conditions of data set [4]: cited from earlier work. This is another data set of the same source.
The next data set concerns primary AML samples. The experiment in a line: Annexin V staining of primary AML samples exposed to PPARγ ligands. It is filed as cell-based, human. To be noted: 72 hrs; 15d-PGJ2 5 μM; BRL49653, L-805645, GW347845X 25 μM. The procedure: Annexin V staining. Cells were washed in phosphate-buffered saline (PBS) and resuspended in 100 μl of binding buffer containing Annexin V (Roche Diagnostic Corporation, Indianapolis, Ind.). Cells were analyzed by flow cytometry after the addition of propidium iodide (PI). Annexin V binds to those cells that express phosphatidylserine on the outer layer of the cell membrane, and PI stains the cellular DNA of those cells with a compromised cell membrane. This allows for live cells (unstained with either fluorochrome) to be discriminated from apoptotic cells (stained only with annexin V) and necrotic cells (stained with both annexin and PI).

Data set [5] has as its system HL-60 cells. As to the kind of experiment: Viable cell count of leukemic cells in suspension culture (Trypan blue). It is filed as cell-based, human. To be noted: Homo sapiens, HL-60, read-out: concentration required for 50% inhibition of HL-60 cells; PPARγ ligands compared to CDDO. The procedure: (§1) Suspension culture of leukemic cells. Leukemic cell lines were cultured at a density of 3.0×10^5 cells/mL, and AML mononuclear cells at 5×10^5 cells/mL in the presence or absence of indicated concentrations of CDDO-Me. Appropriate amounts of DMSO (final concentration<0.05%) was included as a control. For cytotoxicity studies, 1 μM ara-C was added to the cultures.
CDDO. […] The percentage of proliferating cells were analyzed by FCM.
CDDO-Me. […] Mechanism of growth inhibition was analyzed on cell cycle and apoptosis in HL-60 cells.

Data set [6] deals with HL-60 cells. As to the kind of experiment: Differentiation by CD11b/CD14 flow cytometry. It is filed as cell-based, human. To be noted: 7 days.
The subject of data set [7] is HL-60 cells. The experiment in a line: Cell cycle (S+G2M) with RXR-specific ligand. It is filed as cell-based, human. To be noted: 1 μM of LG-100268, combined treatment with CDDO-Me. On the procedure: Cell kinetic and DNA fragmentation studies. The cell cycle kinetics was determined by staining cells with acridine orange for cellular DNA and RNA content followed by flow cytometeric analysis as described. Samples were measured in a FACScan flow cytometer (Becton Dickinson, San Jose, Calif.) using the 488-nm line of a […] argon laser and filter settings for green (530 nm) (DNA) and red (585 nm) (RNA) fluorescence. Ten thousand events were stored in list mode for analysis. The percentage of cells in the “sub G1 peak” defined the proportion of apoptotic cells in the tested populations. […] Cell-cycle kinetics was analyzed using ModFit software (Verity Software House, Inc., Topsham, Me.).
Finally, the inventors examined if CDDO-Me combined with ATRA would enhance differentiation. HL-60 cells were cultured with of 0.1 μM of CDDO-Me for 72 hrs, alone or in combination with 1 μM ATRA. […] At 48 hrs, 67.4% in CDDO-Me-treated cells and 63.5% in ATRA-treated cells were CD11b+ (compared with 40% in DMSO controls), while 85% of cells were positive when both compounds were given simultaneously. These studies were repeated 3 times and yielded essentially identical results. Next, combined treatment with CDDO-Me and RXR-specific ligand were tested for potentiation of anti-leukemic effects. […]

Data set [8] concerns HL-60 cells. The experiment in a line: CDDO-Me plus LG-100268 in HL-60 cells (Table 6). It is filed as cell-based, human. Details: unit not given here. To be noted: 24 hrs. On the procedure: Finally, the inventors examined if CDDO-Me combined with ATRA would enhance differentiation. HL-60 cells were cultured with of 0.1 μM of CDDO-Me for 72 hrs, alone or in combination with 1 μM ATRA. […] At 48 hrs, 67.4% in CDDO-Me-treated cells and 63.5% in ATRA-treated cells were CD11b+ (compared with 40% in DMSO controls), while 85% of cells were positive when both compounds were given simultaneously. These studies were repeated 3 times and yielded essentially identical results. Next, combined treatment with CDDO-Me and RXR-specific ligand were tested for potentiation of anti-leukemic effects. RXR-specific ligand LG-100268 (Ligand Pharmaceuticals) used at 10, 100 nm and 1 μM enhanced killing of HL-60 cells in a dose-dependent manner (Table 6).

A further data set has as its system primary AML cells. The experiment in a line: Apoptosis in primary AML samples, subG1 DNA flow cytometry. It is filed as cell-based, human. Conditions: ara-C 1 μM, alone or combined. On the procedure: Subjects. Samples of bone marrow or peripheral blood were obtained for in vitro studies from patients with newly diagnosed or recurrent AML with high (>70%) blast count and from patients with myeloid transformation of chronic myeloid leukemia (CML). Informed consent was obtained following institutional guidelines. Mononuclear cells were separated by Ficoll-Hypaque (Sigma Chemical Co) density-gradient centrifugation.
as §1
Cell kinetic and DNA fragmentation studies. The cell cycle kinetics was determined by staining cells with acridine orange for cellular DNA and RNA content followed by flow cytometeric analysis as described. […] Ten thousand events were stored in list mode for analysis. The percentage of cells in the “sub G1 peak” defined the proportion of apoptotic cells in the tested populations. […] Cell-cycle kinetics was analyzed using ModFit software (Verity Software House, Inc., Topsham, Me.). […]

Counter-ions that a name gives are not always drawn. Numbered stars: 1 amine (or outer) side, 2 acyl side, 3 side chain; on linkers, the order of the positions; unused ones are H or OH. Bridge positions count the residues as written; N and C are the ends. Square brackets hold non-standard residues; d marks the D form. Peptide text beside a SMILES is read from it. I, II: the chains in the order shown. Actinocin(9to1) = Cc1c2oc3c(C)ccc(C(=O)[*:1])c3nc-2c(C(=O)[*:2])c(N)c1=O; NMeV = CN[C@H](C(=O)O)C(C)C; Sar = CNCC(=O)O

For the compound “TRAIL: member of tumor necrosis factor family of cytokines”, the “effect of chemotherapy in mice bearing human colon carcinoma tumors” value in [1] (250-500 μg (Gliniak et al, 1999)) is listed as “synergistically enhanced effect of chemotherapy”. For the same compound, in data set [1] (daily injections of 200-1000 μg (14 days) (Walczak et al., 1999)), the “survival of tumor-bearing mice” value is recorded as “significantly increased survival”.

Turning to `Cc1c2oc3c(C)ccc(C(=O)N[C@@H]4C(=O)N[C@H](C(C)C)C(=O)N5CCC[C@H]5C(=O)N(C)CC(=O)N(C)[C@@H](C(C)C)C(=O)O[C@@H]4C)c3nc-2c(C(=O)N[C@@H]2C(=O)N[C@H](C(C)C)C(=O)N3CCC[C@H]3C(=O)N(C)CC(=O)N(C)[C@@H](C(C)C)C(=O)O[C@@H]2C)c(N)c1=O` [Actinomycin D] (I: T[dV]P[Sar][NMeV] / II: T[dV]P[Sar][NMeV]; ester I:1-I:C, II:1-II:C; linker I:N-II:N via Actinocin(9to1)), in data set [2] (in vivo), the elimination half-life entry is “about 36 hr”, the “fraction of dose excreted/recovered in the urine” value was 10% and the “fraction secreted/excreted into the bile” value was “Half of the dose”.

`O=C(O)CCCc1ccc(N(CCCl)CCCl)cc1` [Chlorambucil, 4-[bis(2-chlorethyl)amino] benzenebutanoic acid]: the oral absorption entry in [2] (in vivo) is “rapidly and completely absorbed”. Besides, in data set [2], the terminal half-life is ~1.5 h.

On to `COc1cccc2c1C(=O)c1c(O)c3c(c(O)c1C2=O)C[C@@](O)(C(=O)CO)C[C@@H]3O[C@H]1C[C@H](N)[C@H](O)[C@H](C)O1` [Doxorubicin, 5,12-Naphthacenedione, (8s-cis)-10-[(3-amino-2,3,6-trideoxy-a-L-lyxo-hexopyranosyl)oxy]-7,8,9,10-tetrahydro-6,8,11-trihydroxy-8-(hydroxyacetyl)-1-methoxy-hydrochloride], for which, in data set [2] (in vivo), the oral absorption entry is given as “absorbed poorly”, the elimination half-life result is recorded as “about 30 hr” and the “fraction of dose excreted/recovered in the urine” value is reported as “a few percent”.

`COc1cccc2c1C(=O)c1c(O)c3c(c(O)c1C2=O)C[C@@](O)(C(C)=O)C[C@@H]3O[C@H]1C[C@H](N)[C@H](O)[C@H](C)O1` [Daunorubicin, 5,12-Naphthacenedione, (8S-cis)-8-acetyl-10-[(3-amino-2,3,6-trideoxy-α-L-lyxo-hexanopyranosyl)oxy]-7,8,9,10-tetrahydro-6,8,11-trihydroxy-10-methoxy-, hydrochloride]: in data set [2] (in vivo), the oral absorption result is “Oral absorption is poor”, the elimination half-life result is reported as “about 19 hr” and the “fraction secreted/excreted into the bile” value is ~40%.

`N.N.[Cl][Pt][Cl]` [Cisplatin]: in data set [2] (in vivo), the oral absorption result is listed as “not absorbed orally”.

Take `CC1=C(/C=C/C(C)=C/C=C/C(C)=C/C(=O)O)C(C)(C)CCC1` [ATRA, all-trans-retinoic acid, reference compound]: the “CD11b+ cells” value with HL-60 cells [3] (48 hrs, CDDO-Me 0.1 μM, ATRA 1 μM, alone or simultaneously (DMSO controls 40%)) turned out to be 63.5%. Moreover, the “percentage of CD14 (+) live cells (FCM)” value in the data set on HL-60 cells [3] (CDDO 0, ligand 1 nM) worked out at 4%; in the data set with HL-60 cells [3] (CDDO 0, ligand 10 nM) it was 5.2%; in the data set on HL-60 cells [3] (CDDO 0, ligand 100 nM), 4.4%. Besides, the “patients achieving complete remissions” value in [4] (acute promyelocytic leukemia (Warrell et al., 1991)) was “over 90%”.

As for `CN(CCOc1ccc(CC2SC(=O)NC2=O)cc1)c1ccccn1` (centres unmarked) [BRL49653, rosiglitazone], the annexin-V-positive cells in the data set with primary AML samples was determined as 7%. The IC50 with HL-60 cells [5] fell in the range of 25 to 50 µM. Moreover, the CD11b % came to 38.9% with HL-60 cells [6] (10 μM (15d-PGJ2 column head prints M)) and 48.5% with HL-60 cells [6] (25 μM).

Regarding `CC[C@]1(O)C[C@@H]2CN(CCc3c([nH]c4ccccc34)[C@@](C(=O)OC)(c3cc4c(cc3OC)N(C)[C@H]3[C@@](O)(C(=O)OC)[C@H](OC(C)=O)[C@]5(CC)C=CCN6CC[C@]43[C@@H]65)C2)C1` [Vinblastine], in [2] (in vivo), the “fraction of dose excreted/recovered in the urine” value was “Approximately 15%” and the “fraction recovered in the feces after biliary excretion” value is recorded as “about 10%”. Further, in data set [2], the “peak concentration in plasma” value was “approximately 0.4 mM”.

For the compound Bleomycin, the “fraction of dose excreted/recovered in the urine” value in [2] (in vivo) is 60% to 70.

As for `Cc1cc2c(cc1C1(c3ccc(C(=O)O)cn3)CC1)C(C)(C)CCC2(C)C` [LG-100268], the “percentage of CD14 (+) live cells (FCM)” value with HL-60 cells [3] (CDDO 0, ligand 1 nM) worked out at 16.6%; in the data set on HL-60 cells [3] (CDDO 0, ligand 10 nM), 9.6%; with HL-60 cells [3] (CDDO 0, ligand 100 nM) it was 9.4%. The “percentage of cells in S+G2M decreased by” value with HL-60 cells [7] came to 50%. In addition, the “Table 6 value: CDDO-Me-induced monocytic differentiation in HL-60 cells” value with HL-60 cells [8] (CDDO-Me 0, LG-100268 10 nM) was determined as 6.8; with HL-60 cells [8] (CDDO-Me 0, LG-100268 100 nM) it was 6.2; in the data set on HL-60 cells [8] (CDDO-Me 0, LG-100268 1 μM), 6.3.

As for `Nc1ccn([C@@H]2O[C@H](CO)[C@@H](O)[C@@H]2O)c(=O)n1` [ara-C, reference compound], the “apoptosis in AML samples” value in the data set on primary AML cells (CDDO 1 μM, n=23 (DMSO control 27.7±3.7%)) is 41.6±4.6%. The “cell killing in AML samples” value in the data set with primary AML cells (CDDO-Me 1 μM, n=6 (DMSO control 24.9±7.4%)) is given as 39.8±8.2%.

For `CO[C@@]12[C@H](COC(N)=O)C3=C(C(=O)C(C)=C(N)C3=O)N1C[C@@H]1N[C@@H]12` [Mitomycin], in data set [2] (after 30 mg bolus injection), the “time required to reduce the serum concentration by 50%” value is 17 min. In [2] (in vivo), the “fraction of dose excreted/recovered in the urine” value is recorded as “Approximately 10%”.

Take `COc1cccc2c1C(=O)c1c(O)c3c(c(O)c1C2=O)C[C@@](O)([C@H](C)O)C[C@@H]3O[C@H]1C[C@H](N)[C@H](O)[C@H](C)O1` [daunorubicinol]: the elimination half-life result in data set [2] (in vivo) is on record as “about 27 hr”.

Consider `CC[C@]1(O)C[C@H]2CN(CCc3c([nH]c4ccccc34)[C@@](C(=O)OC)(c3cc4c(cc3OC)N(C=O)[C@H]3[C@@](O)(C(=O)OC)[C@H](OC(C)=O)[C@]5(CC)C=CCN6CC[C@]43[C@@H]65)C2)C1` [Vincristine], for which, in data set [2], the terminal half-life entry is recorded as “about 24 hours” and the “peak concentration in plasma” value is “approximately 0.4 mM”.

As for `CS(=O)(=O)OCCCCOS(C)(=O)=O` [busulfan, 1,4-butanediol dimethanesulfonate], the “adults obtaining hematologic remission” value in data set [4] (previously untreated chronic myelogenous leukemia) is “Approximately 90%”.

As for `O=NN(CCCl)C(=O)NC1CCCCC1` [Lomustine, 1-(2-chloro-ethyl)-3-cyclohexyl-1 nitrosourea], the “radioactivity excreted as degradation products within 24 hours” value in [2] (oral radioactive lomustine 30 mg/m^2 to 100 mg/m^2) is “about half of the radioactivity”.

For the compound `N[C@@H](Cc1ccc(N(CCCl)CCCl)cc1)C(=O)O` [Melphalan, 4-[bis(2-chloroethyl)amino]-L-phenylalanine], in data set [4] (multiple myeloma, oral administration), the “patients with favorable response” value is “about one third to one half”.
